Earlier results, collected in patent publication US10179172B2, “Liquid pharmaceutical formulations for injection comprising yellow 5 or orange G and uses thereof” (EAGLE BIOLOGICS, INC., priority 2013, dated 2019).
Several values for one entry are separate records, joined by “and”; a condition that tells them apart may be missing. Equal entries are not always repeated.

Tests used:
[1] = test system: respiratory syncytial virus; conditions: two Phase III clinical trials, pediatric population
[2] = long-term clinical outcomes

| Substance | Reduction of the risk of hospitalization due to respiratory syncytial virus infection [1] | Patients achieving clinical remission [2] [%] |
| --- | --- | --- |
| palivizumab: humanized mAb directed against an epitope in the A antigenic site of the F protein of respiratory syncytial virus | 55% and 45% | – |
| vedolizumab: mAb being developed by Millennium Pharmaceuticals for ulcerative colitis and Crohn's disease | – | ~60 |
